Entries after “also recorded” stand apart in the source; their conditions may differ.
How the values were obtained:
[1] = system: high-density lipoprotein cholesterol (HDL-C); assay: HDL-C level in HepG2; assay type: cell-based
Description: (§1) After incubation, cells were treated with 100 μM of peptides for 4 h. After removing the media, PANa was added for 24 h of incubation. The levels of catalase (CAT), superoxide dismutase (SOD), glutathione peroxidase (GSH-Px), malondialdehyde (MDA), triacylglycerol (TG), total cholesterol (TCHO), low-density lipoprotein cholesterol (LDL-C), and high-density lipoprotein cholesterol (HDL-C) in the supernatant were determined according to the kit instructions.

[2] = system: phosphorylated ACC1 (p-ACC1); assay: Western blot p-ACC1; assay type: cell-based; conditions: HepG2, Western blot
Description: (§2) After treatment, cells were washed with pre-chilled PBS and lysed with ice-cold lysis buffer for 30 min. The supernatant was collected after centrifugation at 12,000× g for 10 min and stored at −80 °C. Protein concentration was determined using a BCA protein assay kit. Equal amounts of protein (20–40 µg) were subjected to 10% sodium dodecyl sulfate-polyacrylamide gel electrophoresis (SDS-PAGE) and transferred to PVDF membranes (Polyvinylidene Fluoride, Merck, Darmstadt, Germany). Non-specific binding sites were blocked with 5% bovine serum albumin (BSA) solution at room temperature for 1 h, followed by incubation with the primary antibody at 4 °C overnight. After washing with TBST (3 times, 10 min/time), the membrane was incubated with the secondary antibody at room temperature for 1 h. Following further washing with TBST (3 times, 10 min/time), antibody signals were detected using a Western blot development system. The dilution ratios for the internal reference protein, vascular endothelial injury-related proteins, and oxidative stress-related pathway proteins were prepared according to the manufacturer’s instructions.

HO-1 = assay: Western blot HO-1; assay type: cell-based; conditions: HepG2, Western blot
Description: as §2

HepG2 cells [3] = assay: Observation of cell morphology; assay type: cell-based; conditions: 350 µM PANa 24 h, inverted microscope, 200×
Description: Cells grown in culture flasks underwent digestion to create a single-cell suspension that was then diluted with fresh medium before being transferred into six-well plates at a final concentration of 4 × 10^5/well (2 mL/well). Peptides at concentrations of 100 μM were introduced prior to adding PANa for a 4 h incubation. Following another 24 h culture period, cells were examined and photographed using an inverted microscope.

p-AMPKα = assay: Western blot p-AMPKα; assay type: cell-based; conditions: 350 µM PANa 24 h, HepG2, Western blot
Description: as §2

HepG2 cells [4] = assay: Oil Red O staining (fat accumulation); assay type: cell-based; conditions: 200×
Description: After incubation, the supernatants were discarded, and 2 mL of Oil Red O stationary solution was added to each well for 20–30 min. The stationary solution was subsequently washed away with 60% isopropyl alcohol. A freshly prepared Oil Red O staining solution was then applied for immersion dyeing lasting 10–20 min. After removing the staining solution with water, a Mayer hematoxylin staining solution was added for counterstaining the nucleus for 1–2 min before being discarded. An Oil Red O buffer solution was applied for 1 min and then discarded. […] The emission wavelength of fluorescence detection was 600 nm.

catalase (CAT) = assay: Catalase (CAT) activity in HepG2; assay type: cell-based
Description: as §1

total cholesterol (TCHO) = assay: Total cholesterol (TCHO) level in HepG2; assay type: cell-based
Description: as §1

triacylglycerol (TG) = assay: Triacylglycerol (TG) level in HepG2; assay type: cell-based
Description: as §1

[5] = system: fatty acid synthase (FASN); assay: Western blot FASN; assay type: cell-based; conditions: HepG2, Western blot
Description: as §2

[6] = system: adipose triglyceride lipase (ATGL); assay: Western blot ATGL; assay type: cell-based; conditions: HepG2, Western blot
Description: as §2

malondialdehyde (MDA) = assay: Malondialdehyde (MDA) level in HepG2; assay type: cell-based
Description: as §1

[7] = system: low-density lipoprotein cholesterol (LDL-C); assay: LDL-C level in HepG2; assay type: cell-based
Description: as §1

[8] = system: Carnitine palmitoyl transferase 1 (CPT1); assay: Western blot CPT1; assay type: cell-based; conditions: HepG2, Western blot
Description: as §2

HepG2 cells [9] = assay: CCK-8 proliferation of HepG2 with PANa; assay type: cell-based; conditions: 1000 μM PANa, 24 h, CCK-8, p < 0.0001, 100% at 0 μM PANa
Description: After incubation, different concentrations (250, 500, 750, 1000 μmol/L) of PANa were added and treated for 24 h. The cell proliferation rates were measured according to the CCK-8 assay instructions.

Nrf2 = assay: Western blot Nrf2; assay type: cell-based; conditions: HepG2, Western blot
Description: as §2

[10] = system: glutathione peroxidase (GSH-Px); assay: Glutathione peroxidase (GSH-Px) activity in HepG2; assay type: cell-based
Description: as §1

NQO1 = assay: Western blot NQO1; assay type: cell-based; conditions: HepG2, Western blot
Description: as §2

[11] = system: superoxide dismutase (SOD); assay: Superoxide dismutase (SOD) activity in HepG2; assay type: cell-based; conditions: 100 μM peptide 4 h, then 350 µM PANa 24 h
Description: as §1

pancreatic lipase = assay: Pancreatic lipase activity inhibition; assay type: biochemical; conditions: compared with orlistat (positive control); 4-nitrophenyl palmitate substrate, lipase 1.2 mg/mL, peptide 100 μM, Tris-HCl pH 8.0, 37 °C, absorbance 405 nm, three parallel wells
Description: A working substrate solution consisting of 4-nitrophenyl palmitate dissolved in sodium acetate solution (containing 1% Triton-X 100, 100 mL, 5 mM, pH 5.0) was prepared. Enzyme powder was dissolved in Tris-HCl buffer (pH 8.0, 37 °C). This mixture was incubated at 4 °C for 2 h before centrifugation at 5000 r/min for 5 min, yielding the supernatant used to prepare a pancreatic lipase solution of 1.2 mg/mL. Orlistat at a concentration of 1 mg/mL in Tris-HCl buffer (pH 8.0; 37 °C) was prepared alongside DMSO to reach a concentration of 350 μg/mL peptide solution. The peptide solution of 100 μM was prepared with Tris-HCl buffer (pH = 8.0, 37 °C). The absorbance was measured at 405 nm, and the inhibition rate was measured in parallel with three holes due to the methodology of Franco et al..

[12] = system: proteins associated with lipid metabolism; assay: Western blot, proteins associated with lipid metabolism overall; assay type: cell-based; conditions: 100 μM peptide 4 h, then 350 µM PANa 24 h, HepG2, Western blot
Description: as §2

HepG2 = assay: Lipid levels in HepG2 (TG, TCHO, LDL-C, HDL-C) overall; assay type: cell-based; conditions: 100 μM peptide 4 h, then 350 µM PANa 24 h
Description: as §1

HepG2 cells [13] = assay: CCK-8 proliferation of HepG2 with peptide alone; assay type: cell-based; conditions: concentrations below 200 µM, 24 h, CCK-8, n = 3
Description: HepG2 cells were cultured in DMEM supplemented with penicillin at a concentration of 100 U/mL, streptomycin at 100 μg/mL, and fetal bovine serum at a volume ratio of 10% under conditions of 37 °C and 5% CO2. A total of 2 ×10^4 cells per well were seeded into a 96-well plate for overnight culture. The upper layer of medium was carefully aspirated, and 200 μL of different concentrations of oligopeptide solution (50 μM, 100 μM, 200 μM) prepared with cell complete medium was added to each well. Twenty-four hours later, the proliferation rate of the cells was measured according to the instructions of the CCK-8 kit, and the appropriate concentration of oligopeptide was screened out.

HepG2 cells [14] = assay: Cell viability of PANa-induced HepG2 (CCK-8); assay type: cell-based; conditions: 100 μM peptide 4 h, then 350 µM PANa 24 h, **** p < 0.0001 vs PANa group
Description: A total of 2 × 10^4 cells/well were inoculated in 96-well plates for culture at 37 °C and 5% CO2. Following this period, the cells received treatment with 200 μL medium containing 100 μM LR-7, KA-8, or PG-7 for 4 h before adding 350 μM PANa to each well. After incubation for an additional 24 h, the cell proliferation rates were assessed using the CCK-8 assay protocols.

hypertensive mice = conditions: earlier work, ref [22]; cited from earlier work
From the text: Harpadon nehereus, a nutrient-rich marine species indigenous to the Indo-Pacific region, remains underexploited despite its significant collagen content (18–22% wet weight). Harpadon nehereus serves as an economical source that is rich in protein and trace elements. Its proteins and derived peptides offer numerous health benefits including immune enhancement, blood pressure reduction, cardiovascular protection, and inflammation mitigation. In prior research, we successfully isolated three novel peptides LALFVPR (LR-7), KLHDEEVA (KA-8), and PSRILYG (PG-7) from the enzymatic hydrol ...

[15] = 350 µM PANa 24 h, HepG2, p < 0.001
[16] = 350 µM PANa 24 h, HepG2, p < 0.0001
[17] = 100 μM peptide 4 h, then 350 µM PANa 24 h, HepG2
[18] = 100 μM peptide 4 h, then 350 µM PANa 24 h
[19] = 100 μM peptide 4 h, then 350 µM PANa 24 h, vs PANa group
[20] = 100 μM peptide 4 h, then 350 µM PANa 24 h, vs PANa group, p < 0.0001
[21] = 100 μM peptide 4 h, then 350 µM PANa 24 h, HepG2, p < 0.0001

CCCCCCCCCCCCCCCC(=O)[O-].[Na+] [PANa, Sodium palmitate]
decrease in HDL-C level vs Con group [1, 15]: 51.7% | p-ACC1 level, PANa vs Con group ([2]; 350 µM PANa 24 h, p < 0.01): significantly reduced | HO-1 protein expression, PANa vs Con group (HO-1; 350 µM PANa 24 h): significant reduction | cell morphology, PANa group (HepG2 cells [3]): appeared loose, with a marked decrease in cell count and showed signs of apoptosis | phosphorylation of AMPKα, PANa group (p-AMPKα): attenuate the phosphorylation of AMPKα | fat droplet formation and accumulation, PANa vs Con group (HepG2 cells [4]; 350 µM PANa 24 h): evident rise in fat droplet formation and accumulation | decrease in CAT activity vs Con group (catalase (CAT); [15]): more than 20% | increase in TCHO level vs Con group (total cholesterol (TCHO); [16]): 48.4% | increase in TG level vs Con group (triacylglycerol (TG); [16]): 124.1% | FASN expression, PANa vs Con group ([5]; 350 µM PANa 24 h): notable increase in FASN expression | ATGL expression, PANa vs Con group ([6]; 350 µM PANa 24 h, p < 0.05): markedly diminished | increase in MDA level vs Con group (malondialdehyde (MDA); [16]): 105% | increase in LDL-C level vs Con group [7, 16]: 58.3% | CPT1 expression, PANa vs Con group ([8]; 350 µM PANa 24 h, p < 0.05): markedly diminished | cell viability (HepG2 cells [9]): 33.3% | Nrf2 protein expression, PANa vs Con group (Nrf2; 350 µM PANa 24 h): significant reduction | decrease in GSH-Px activity vs Con group [10, 15]: more than 20% | NQO1 protein expression, PANa vs Con group (NQO1; 350 µM PANa 24 h): significant reduction

LALFVPR [LR-7, peptide from Harpadon nehereus bone collagen enzymatic hydrolysates]
HDL-C, effect on PANa-induced decrease [1, 17]: notably reversed | p-ACC1 level vs PANa group [2, 18]: p-ACC1 levels increased significantly | enhancement of p-ACC1 [2, 19]: 293.7% | SOD activity, reversal of PANa-induced reduction [11]: effectively reversed the reduction | HO-1 protein level (HO-1; [18]): significant increases in the levels | increase in HO-1 level (HO-1; [20]): 131.7% | inhibition of pancreatic lipase activity (pancreatic lipase): superior inhibitory effects compared with orlistat | fat accumulation relative to PANa group (HepG2 cells [4]; [18]): most significant reduction in fat accumulation | CAT activity, reversal of PANa-induced reduction (catalase (CAT); [17]): effectively reversed the reduction | increase in CAT activity vs PANa group (catalase (CAT); [21]): over 100% | TCHO, effect on PANa-induced increase (total cholesterol (TCHO); [17]): notably reversed the PANa-induced increases | TG, effect on PANa-induced increase (triacylglycerol (TG); [17]): notably reversed the PANa-induced increases | FASN expression vs PANa group [5, 18]: FASN expression decreased | reduction in FASN level [5, 19]: 59.6% | enhancement of ATGL level [6, 20]: 148.1% | abnormal expression of proteins associated with lipid metabolism by PANa (FASN, ATGL, CPT1, p-AMPKα) [12]: significantly reversed | lipid-lowering impact, ranking among the three peptides (HepG2): the most effective lipid-lowering impact | MDA level (malondialdehyde (MDA); [17]): decreased to values similar to those observed in the Con group; also recorded: significantly decreased the MDA levels | effect on apoptosis of HepG2 cells (HepG2 cells [13]): no effect on the apoptosis of HepG2 cells | LDL-C, effect on PANa-induced increase [7, 17]: notably reversed the PANa-induced increases | enhancement of CPT1 level [8, 20]: 134.7% | Nrf2 protein level (Nrf2; [18]): significant increases in the levels | GSH-Px activity, reversal of PANa-induced reduction [10, 17]: effectively reversed the reduction | increase in GSH-Px activity vs PANa group [10, 21]: over 100% | cell viability of PANa-exposed HepG2 (HepG2 cells [14]): notably enhanced the cell viability | protection against cardiovascular injuries in hypertensive mice (hypertensive mice): protective qualities against cardiovascular injuries in hypertensive mice | NQO1 protein level (NQO1; [18]): significant increases in the levels | increase in NQO1 level (NQO1; [20]): 120%

— paper PMC11943913, “Peptides from Harpadon nehereus Bone Ameliorate Sodium Palmitate-Induced HepG2 Lipotoxicity by Regulating Oxidative Stress and Lipid Metabolism” (Marine Drugs, 2025)
